{
  "source": "patent US12491187B2",
  "about": "“Use of MCT1 inhibitors to enhance insulin sensitivity” (H. LEE MOFFIT CANCER CENTER AND RESEARCH INSTITUTE, INC., priority 2022, dated 2025)",
  "format_in_all_cases": "cell-based, murine",
  "key": {"[1]": {"tested_on": "differentiated 3T3-L1 (WT) cells", "conditions": "mouse", "description": "Cell Viability: 3T3-L1 cells were seeded and differentiated in white, clear bottom, 384-well plates (Corning®). Following differentiation, adipocytes were treated for 24, 48 or 72 hr with varying concentrations of AZD3965 ranging from 0.1 nM to 10 µM. Following the indicated incubation period, cells were assayed with CytoTox-Glo™ (Promega®) according the manufacturer's instructions to assess cell toxicity. Briefly, this assay is a luminescent cytotoxicity kit that measures the relative number of dead cells in a population through the addition of a cell impermeant luminogenic substrate which luminesces in the presence of ‘dead-cell protease’, a protein released from membrane-compromised, dead cells. Luminescence was read on a spectrophotometer (FlexStation 3; Molecular Devices). The data generated were normalized by dividing the relative luminescence units (RLU) collected for each experimental condition by the average RLU of ‘basal’ untreated cells considered to be 100% viable."}, "[2]": {"tested_on": "differentiated 3T3-L1 cells", "assay": "NADP+ + NADPH bioavailability (NADP+/NADPH-Glo)", "conditions": "1 μM", "description": "NADP++NADPH Bioavailability: 3T3-L1 cells were seeded, differentiated and treated with or without AZD3965 (1 μM) for up to 72 hr in clear 96 well plates (Corning®). Following treatment, the NADP+/NADPH-Glo™ (Promega®) kit was used to measure the total NADP++NADPH concentration within each sample according to the manufacturer's instructions. In the presence of either NADP+ or NADPH, an enzyme ‘Reductase’ reduces a pro-luciferin reductase substrate to form luciferin which emits a luminescent signal directly proportional to the quantity of NADP+ and NADPH. Luminescence was read on a spectrophotometer (FlexStation 3; Molecular Devices)."}, "[3]": {"tested_on": "differentiated 3T3-L1 (WT) cells", "assay": "Immunoblotting of protein expression in differentiated adipocytes", "description": "Immunoblotting: For the collection of membrane bound proteins (i.e., MCT1), cells were lysed and the membrane fraction of protein was isolated as previously described (Sadler, J B A, et al. Preparation of a total membrane fraction from 3T3-L1 adipocytes (Cold Spring Harb. Protoc. 2016, 2016, pdb-prot083675). Briefly, cells were lysed with ice cold HES buffer (250 mM sucrose, 20 mM HEPES, 1 mM EDTA, pH7.4) containing a cocktail of protease and phosphatase inhibitors (Roche Diagnostic) and centrifuged for 5 min (500 g at 4° C.) to pellet out nuclei. The remaining supernatant (containing cytosolic and membrane bound proteins) was collected. For all other immunoblotting experiments, RIPA lysis buffer containing protease and phosphatase inhibitors was used, and protein was isolated via centrifugation at 17,000 g for 10 min at 4° C. For all samples, protein concentration of the lysates was measured using the BCA Protein Assay Kit (Pierce Biotechnologies). Diluted lysates were added to Laemmli sample buffer and denatured at 95° C. for 5 min. After sample preparation, proteins were resolved via SDS-polyacrylamide gel electrophoresis (4-12%) using NuPAGE 4-12% Bis-Tris gels (Invitrogen), and transferred to nitrocellulose membranes. Blots were placed in blocking buffer (LI-COR Biosciences) and incubated overnight at 4° C. with primary antibodies at the recommended dilution. Blots were washed 3 times (5 minutes per wash) in TBST (20 mM Tris, pH 7.6, 140 mM NaCl, and 0.1% Tween-20), and then incubated with the appropriate IRDye-conjugated secondary antibody (LI-COR Biosciences) diluted in blocking buffer and incubated at room temperature for an hr. […] Bands were quantified using Image Studio™ (LI-COR Biosciences)."}, "[4]": {"tested_on": "differentiated 3T3-L1 adipocytes", "assay": "Adipokine antibody array on conditioned media", "conditions": "72 hr treatment, media conditioned 24 hr", "description": "Adipokine Antibody Array: 3T3-L1 cells were differentiated and treated with or without AZD3965 for 72 hr. After this incubation, media was replenished, and adipocytes were cultured for an additional 24 hr to allow for adipokine secretion and media conditioning. Media was collected and analyzed for adipokine secretion with the Proteome Profiler Mouse Adipokine Array Kit (R&D Systems) according to the manufacturer's instructions. Chemiluminescence was detected with the LI-COR Odyssey® XF Imaging System with a 2 minute exposure time. Positive signals were quantified using Image Studio™ (LI-COR Biosciences) to quantify signal intensity. Data presented represent signal intensity normalized by the signal intensity of reference antibodies within the array."}, "3T3-L1-shMCT1 cells": {"tested_on": "3T3-L1-shMCT1 cells", "assay": "Glucose uptake (Glucose Uptake-Glo) in MCT1 knockdown cells", "description": "Cell Line Development: Lenti plasmid vectors containing shRNA targeting MCT1 or a shScramble sequence were purchased from Genocopia. Lentiviral particles were produced using HEK293T cells and a third-generation packaging system, MISSION Lentiviral Packaging Mix, as per manufacturer's (Sigma-Aldrich) recommendations. To generate shMCT1 cells, 3T3-L1 cells were seeded and transduced with optimized titers of freshly harvested lentivirus. 12 hr after transduction, medium was changed, and cells were allowed to recover for 24 h before being placed under antibiotic selection (2 μg/mL puromycin [Clontech]) for 3-6 days. Cells surviving antibiotic selection were harvested for both reverse transcription quantitative chain polymerase reaction (RT-qPCR) and immunoblotting analyses.\nGlucose Uptake: 3T3-L1 cells were seeded and differentiated in clear bottom 96-well plates (Corning®). After differentiation, cells were treated with or without […] AZD3965 for 24 hr, 48 hr or 72 hr as illustrated in FIG. 7 (schematic outline of experimental procedure). The cells were incubated in serum free media the night before performing the assay. […] Glucose Uptake was measured using the Glucose Uptake-Glo™ Assay (Promega®) according to the manufacturer's protocol. The data generated were normalized by dividing the relative luminescence units (RLU) measured in insulin stimulated wells by vehicle treated controls. […]"}},
  "data": [
    {"smiles": "Cc1[nH]nc(C(F)(F)F)c1Cc1sc2c(c1C(=O)N1C[C@](C)(O)CO1)c(=O)n(C)c(=O)n2C(C)C", "note": "[AZD3965, 5-[[(4S)-4-hydroxy-4-methyl-2-isoxazolidinyl]carbonyl]-3-methyl-1-(1-methylethyl)-6-[[5-methyl-3-(trifluoromethyl)-1H-pyrazol-4-yl]methyl]-thieno[2,3-d]pyrimidine-2,4 (1H, 3H)-dione]", "values": [
      {"measurement": "cytotoxicity / cell viability", "setting": "[1]", "result": "not due to AZD3965-induced cytotoxicity"},
      {"measurement": "concentration of NADP+/NADPH cofactor species", "setting": "[2]; 24 hr, 48 hr and 72 hr", "result": "subtle, yet significant decrease"},
      {"measurement": "decrease in intracellular concentrations of NADP+ (H)", "setting": "[2]; up to 72 hr", "result": "less than 15%"},
      {"measurement": "total CDK1 protein expression", "setting": "[3]; 1 μM, up to 72 hr", "result": "no change"},
      {"measurement": "CDK1 phosphorylation at Tyr15", "setting": "[3]; 1 μM, up to 72 hr, normalized to total CDK1 and α-tubulin", "result": "significant decrease"},
      {"measurement": "HSL protein expression", "setting": "[3]; mature adipocytes, 24-72 hr treatment", "result": "significant decrease"},
      {"measurement": "FABP4 protein expression", "setting": "[3]; mature adipocytes, 48 hr treatment", "result": "significantly increased"},
      {"measurement": "FABP4 protein expression", "setting": "[3]; mature adipocytes, by 72 hr treatment", "result": "this increase was attenuated"},
      {"measurement": "PPARγ protein expression", "setting": "[3]; mature adipocytes, up to 72 hr treatment", "result": "no changes"},
      {"measurement": "adipokine levels in conditioned media", "setting": "[4]", "result": "no significant differences"},
      {"measurement": "insulin-stimulated glucose uptake", "setting": "3T3-L1-shMCT1 cells; 1 μM for 72 hr, 175 nM insulin", "result": "do not respond to insulin as robustly as WT 3T3-L1 cells or show any increase"},
      {"measurement": "basal, non-insulin stimulated glucose uptake", "setting": "3T3-L1-shMCT1 cells; 1 μM, up to 72 hr", "result": "no significant changes"}
    ]}
  ]
}
